Test results as given in US20260224714A1, “CYCLING LYSOSOMAL TARGETING ANTIBODY CONJUGATES” (Lycia Therapeutics, Inc., priority 2023, published 2026).

Key:
Assay type in all cases: cell-based
[1] = test system: Alexa Fluor647 labelled human IgE; assay: Uptake assay: internalization of Alexa Fluor 647 labelled IgE in wild type HepG2 cells (Example 6); settings: equimolar conjugate and AF647 IgE, 2 hours, median cellular AF647 intensity by flow cytometry, normalized to unconjugated parent protein
Procedure: (§1) The following experiments were performed with HepG2 hepatocellular carcinoma cells, grown in Eagle's Minimal Essential Media (EMEM) supplemented with 10% FBS and penicillin/streptomycin.
(§2) HepG2 cells (25,000) were plated in 96-well plates 48 hours before the experiment was performed. On the day of the experiment, indicated the conjugate was mixed with an equimolar stock of Alexa Fluor647 labelled human IgE (Enzo Life Sciences, BPD-DIA-HE 1) in fresh EMEM as a 600 nM stock. The precomplexed conjugate:IgE mixture was incubated at room temperature for 30 minutes. During the precomplexing step, media from HepG2 was removed, and 40 ul of EMEM with 1/100 Fc Receptor Blocking Solution (Biolegend Human TruStain FcX, 422302) was added. Cells incubated in the receptor blocking solution for 10 minutes while making serial dilutions (1:3) of conjugate:IgE stock solution in EMEM. 40 ul of the conjugate:IgE mixture in EMEM was then added to cells (six dilutions, with final concentrations ranging from 300 nM to 1.23 nM) for 2 hours before washing with DPBS and detaching with 0.25% Trypsin/EDTA. Cells were pelleted in 96-well conical bottom plates, washed once with FACS Buffer with BSA (Rockland Immunochemicals), and resuspended in FACS Buffer with BSA. Uptake of fluorescently labelled IgE was measured by analyzing median cellular AF647 intensity by flow cytometry.
(§3) Cells were incubated with equimolar ratio of conjugate and AF647 IgE at indicated concentrations, with data normalized to unconjugated parent protein (Oma S35HWY57H-LC).

[2] = test system: Alexa Fluor647 labelled human IgE; assay: Uptake assay: internalization of Alexa Fluor 647 labelled IgE in ASGPR1/2 KO HepG2 cells (Example 6); settings: equimolar conjugate and AF647 IgE, normalized to unconjugated parent protein
Procedure: as §1, §2, §3

[3] = test system: LysoLight-labelled human IgE; assay: Lysosomal degradation of LysoLight-labelled IgE in HepG2 cells, live cell imaging (Example 7); settings: equimolar conjugate:LysoLight IgE, area under the curve of deep red fluorescence over three days, normalized to unconjugated parent protein
Procedure: as §1
HepG2 cells (15,000) were plated in 96-well plates 72 hours before performing the experiment. On the day of the experiment, indicated the conjugate was diluted in fresh EMEM and mixed with an equimolar stock of LysoLight-labelled human IgE (Enzo Life Sciences, BPD-DIA-HE1), at 200 nM of each compound. The precomplexed conjugate:IgE mixture was incubated at room temperature for 30 minutes. During the precomplexing step, media from HepG2 was removed, and 40 ul of EMEM with 1/100 Fc Receptor Blocking Solution (Biolegend Human TruStain FcX, 422302) was added. Cells incubated in the receptor blocking solution for 10 minutes while making serial dilutions (1:3) of conjugate:IgE stock solution in EMEM. 40 ul of the conjugate:IgE mixture in EMEM was then added to cells (five dilutions, with final concentrations ranging from 100 nM to 1.23 nM). Cells were placed in an IncuCyte Live-Cell Analysis System (Sartorius) for long term live cell imaging analysis (10× magnification, 3 images per well). One hour after addition of compound, image acquisition to measure red fluorescence from the LysoLight probe was started, with further Images collected every hour for 72 hours. Fluorescence of the LysoLight probe only occurs when cleaved by lysosomal cathepsin proteases, confirming lysosomal delivery and degradation of target. After 72 hours, mean red fluorescence was measured for each time point, and the area under the curve of fluorescence overtime was used to measure total degradation over the 3-day time period.

HepG2 cells = assay: Externalization of conjugates from a cell following internalization (cycling), high-throughput format (Example 11); settings: 50 nM conjugate 1 hour, stringent washes, Alexa Fluor 647-labelled a-human IgG 1 hour, FACS, normalized to unconjugated parent protein, average of two replicate wells
Procedure: as §1
The method was also adapted to a high-throughput format. In this assay, 25,000 HepG2 cells were plated in 96-well plates 48 hours before performing the experiment. The day of the experiment, cells were incubated with conjugate at indicated concentrations for 1 hour. Cells were then placed on ice to prevent trafficking/recycling during wash steps, and washed once with DPBS, once with sodium acetate buffer (20 mM, 150 mM NaCl, pH 5.2), once with Earle's Balanced Salt Solution (EBSS) adjusted to pH 2.5, and once again with DPBS, to remove conjugate from media and cell surface. Afterwards, 100 ul of prewarmed (to 37° C.) EMEM with 1 μg/ml of human a-IgG antibody conjugated to Alexa Fluor647 fluorophores was added to cells for 1 hour before washing with DPBS and detaching with 0.25% Trypsin/EDTA. Cells were pelleted in 96-well conical bottom plates, washed once with FACS Buffer with BSA (Rockland Immunochemicals), resuspended FACS Buffer with BSA and median AF647 intensity was analyzed by flow cytometry. The amount of conjugate capable of cycling to the cell surface (being externalized from the cell) and binding to the Alexa Fluor647 labelled α-IgG was measured by analyzing median cellular 647 fluorescence intensity by flow cytometry. […]. Reported values are the average of the values of two replicate wells.

human IgE = assay: Degradation of initial and subsequent dose of target in HepG2 cells (Example 12, Table 30); settings: normalized to unconjugated; for Normalized Fluorescence Post Wash Median Green: after wash, probe-conjugated IgE added for 4 hours, subsequent dose of target; for Normalized Fluorescence Precomplex Median Deep Red: precomplexed equimolar conjugate:IgE (cathepsin-cleavable quenched fluorescent probe) added for 2 hours, initial dose of target
Procedure: as §1
HepG2 cells (25,000) were plated in 96-well plates 48 hours before performing the experiment. On the day of the experiment, indicated conjugate was diluted in fresh EMEM as a 2× stock, and mixed with an equimolar stock of human IgE (Enzo Life Sciences, BPD-DIA-HE 1) conjugated to a cathepsin-cleavable quenched fluorescent probe. The precomplexed conjugate:IgE mixture was incubated at 37 degrees Celsius for 30 minutes. Media from HepG2 was removed, and conjugate:IgE mixture in EMEM was added to cells for 2 hours. Cells were then placed on ice to prevent trafficking/recycling during wash steps, and washed once with DPBS, once with sodium acetate buffer (20 mM, 150 mM NaCl, pH 5.2), once with Earle's Balanced Salt Solution (EBSS) adjusted to pH 2.5, and once again with DPBS, to remove conjugate from media and cell surface. Afterwards, 100 ul of prewarmed (to 37 degrees Celsius) EMEM with cathepsin-cleavable quenched fluorescent probe-conjugated IgE was added to cells for 4 hours before washing with DPBS and detaching with 0.25% Trypsin/EDTA. Cells were pelleted in 96-well conical bottom plates, washed once with FACS Buffer with BSA (Rockland Immunochemicals), resuspended FACS Buffer with BSA and median 488 and 647 intensity was analyzed by flow cytometry. Delivery of labelled IgE to the lysosome and subsequent cleavage of initial precomplexed IgE was measured by analyzing median cellular 647 intensity, while cleavage of the post wash addition of IgE, which should only be degraded by recycling conjugates which released the first round of precomplexed IgE, was analyzed by median cellular 488 intensity. HepG2 cells were treated with human IgE (Enzo Life Sciences, BPD-DIA-HE1) conjugated to a cathepsin-cleavable quenched deep red (647) fluorescent probe precomplexed to conjugate fortwo hours, then washed, and fresh media with IgE conjugated to a green (488) cathepsin-cleavable fluorescent probe was then added without conjugate. […] Fluorescence values were measured by FACS and normalized to unconjugated parent protein. Reported values are the average of the values of two replicate wells.

recombinant IgE = assay: Degradation of super-stoichiometric levels of target in HepG2 cells (Example 13, Table 31); settings: 1 nM conjugate and 25 nM IgE for three days, (A-B)/C IgE depleted relative to conjugate, average of two replicate wells
Procedure: as §1
For evaluation of compounds in a high throughput format, 25,000 HepG2 cells were plated in a 96-well plate. The following day, 50 ul of 1 nM conjugate and 25 nM recombinant IgE in EMEM were added to the cells. 50 ul of the initial stock of conjugate:IgE was saved to quantify for an initial time point. Three days later, the media was collected from cells, and both initial and 72 hour time points were quantified for IgE concentration using the MSD assay.
HepG2 cells were incubated in media containing 1 nM conjugate and 25 nM IgE for three days. Concentrations of IgE at beginning and end of experiment were quantified by ELISA-based assay. Molar equivalents of IgE depleted relative to conjugate added are shown, calculated as (A-B)/C, where A is the initial concentration of IgE, B is the concentration of IgE at day three, and C is the concentration of conjugate. Reported values are the average of the values of two replicate wells.

Structure (SMILES)	Normalized Fluorescence 3.7 nM WT [1]	Normalized Fluorescence 100 nM WT [1]	Normalized Fluorescence 100 nM ASGPR KO [2]	Normalized Fluorescence 3.7 nM [3]	Normalized Fluorescence 100 nM [3]	Normalized Fluorescence (HepG2 cells)	Normalized Fluorescence Post Wash Median Green (human IgE)	Normalized Fluorescence Precomplex Median Deep Red (human IgE)	Average Degradation (Molar equivalents) (recombinant IgE)
CC(=O)N[C@@H]1[C@@H](O)[C@@H](O)[C@@H](CO)O[C@@H]1CCCOCCOCCNC(=O)NCCCC(CCCNC(=O)NCCOCCOCCC[C@H]1O[C@H](CO)[C@H](O)[C@H](O)[C@H]1NC(C)=O)(CCCNC(=O)NCCOCCOCCC[C@H]1O[C@H](CO)[C@H](O)[C@H](O)[C@H]1NC(C)=O)NC(=O)NCCOCCOCCOCCNC(=O)CBr [Compound 2321]	80.7	320.7	1.1	13.2	4.1	49.3	3.7	4.0	2.4 Molar equivalents
CC(=O)N[C@@H]1[C@@H](O)[C@@H](O)[C@@H](CO)O[C@@H]1c1cn(CCOCCOCCNC(=O)NCCCC(CCCNC(=O)NCCOCCOCCn2cc([C@H]3O[C@H](CO)[C@H](O)[C@H](O)[C@H]3NC(C)=O)nn2)(CCCNC(=O)NCCOCCOCCn2cc([C@H]3O[C@H](CO)[C@H](O)[C@H](O)[C@H]3NC(C)=O)nn2)NC(=O)CCOCCOCCOCCNS(=O)(=O)c2ccc(N3C(=O)C=CC3=O)cc2)nn1 [Compound 2329]	56.3	201.8	1.1	11.6	3.0	40.3	3.0	3.3	4.7 Molar equivalents
CC(CCCNC(=O)NCCOCCOCCOCC(F)(F)c1cncc(N[C@H]2CO[C@H](CO)[C@H](O)[C@@H]2O)n1)(CCCNC(=O)NCCOCCOCCOCC(F)(F)c1cncc(N[C@H]2CO[C@H](CO)[C@H](O)[C@@H]2O)n1)NC(=O)CCOCCOCCOCCNS(=O)(=O)c1ccc(N2C(=O)C=CC2=O)cc1 [Compound 2304]	150.3	292.5	1.0	12.7	4.0	82.2	4.1	3.9	8.8 Molar equivalents
CC(=O)N[C@@H]1[C@@H](O)[C@@H](O)[C@@H](CO)O[C@@H]1CCCOCCOCCNC(=O)NCCCC(C)(CCCNC(=O)NCCOCCOCCC[C@H]1O[C@H](CO)[C@H](O)[C@H](O)[C@H]1NC(C)=O)NC(=O)NCCOCCOCCOCCNC(=O)CBr (stereo partly drawn) [Compound 2320]	37.7	224.4	1.1	6.4	2.7	24.1	2.7	3.2	0.5 Molar equivalents
COC[C@H]1OC[C@H](Nc2nc(OCCOCCOCCNC(=O)NCCCC(CCCNC(=O)NCCOCCOCCOc3cc(C(F)(F)F)nc(N[C@H]4CO[C@H](COC)[C@H](O)[C@@H]4O)n3)(CCCNC(=O)NCCOCCOCCOc3cc(C(F)(F)F)nc(N[C@H]4CO[C@H](COC)[C@H](O)[C@@H]4O)n3)NC(=O)CCOCCOCCOCCNS(=O)(=O)c3ccc(N4C(=O)C=CC4=O)cc3)cc(C(F)(F)F)n2)[C@@H](O)[C@H]1O [Compound 2309]	38.9	201.6	1.1	6.7	3.1	27.1	2.5	3.0	4.1 Molar equivalents
